Measured values: US5130421A, “Production of 2',3'-dideoxy-2',3'-didehydronucleosides” (priority 1991, dated 1992)
Read-outs that look alike come from different tables or passages of the source.

What was measured:
AIDS = settings: clinical trials, patients with AIDS; cited from earlier work
[1] = cellular toxicity measured in CEM cells; format: cell-based; settings: human, read-out: TCID50 (the 50% tissue culture inhibitory dose)
Experimental: cellular toxicity^b of AZT and d4T.
^b The cellular toxicity was measured in CEM cells.
^d The 50% tissue culture inhibitory dose.

HIV (LAV strain) = assay: in vitro anti-HIV efficacy (antiviral test on HIV (LAV strain)-infected CEM cells); format: cell-based; settings: Human immunodeficiency virus 1, CCRF-CEM, read-out: ID50 (the 50% inhibitory dose)
Experimental: Comparative in vitro anti-HIV efficacy^a and
^a The antiviral test was performed on HIV (LAV strain)infected CEM
^c The 50% inhibitory dose.

HIV [2] = settings: cited from earlier work
HIV [3] = settings: in several cell lines; cited from earlier work

Row | SMILES | reported activity against HIV (HIV [2]) | also measured
1 | Cc1cn([C@H]2C[C@H](N=[N+]=[N-])[C@@H](CO)O2)c(=O)[nH]c1=O [AZT, 3'-azido-3'-deoxythymidine] | – | efficacy in the treatment of AIDS (AIDS): efficacious agent in the treatment of AIDS in clinical trials; CC50 [1]: 54 µM; IC50 (HIV (LAV strain)): 0.45 µM
2 | Cc1cn([C@H]2C[C@H](F)[C@@H](CO)O2)c(=O)[nH]c1=O [FDDT, 3'-fluoro-3'-deoxythymidine] | active against HIV | –
3 | O[C@H]1[C@H](O)[C@@H](O)CN2CC[C@H](O)[C@H]12 [castanospermine] | active against HIV | –
4 | Nc1ccn([C@H]2C=C[C@@H](CO)O2)c(=O)n1 [d4C, 2',3'-dideoxy-2',3'-didehydrocytidine] | active against HIV | –
5 | Cc1cn([C@H]2C=C[C@@H](CO)O2)c(=O)[nH]c1=O [d4T, 1-(2,3-Dideoxy-β-D-glycero-pent-2-enofuranosyl)thymine] | – | CC50 [1]: 39 µM; IC50 (HIV (LAV strain); in vitro anti-HIV efficacy, HIV (LAV strain) infected CEM cells): 0.33 µM; in vitro activity against HIV (HIV [3]): possesses in vitro activity against HIV in several cell lines
6 | CC(C)(S)[C@@H](N)C(=O)O [d-penicillamine] | active against HIV | –
7 | Nc1ncnc2c1ncn2[C@H]1CC[C@@H](CO)O1 [ddA, 2',3'-dideoxyadenosine] | active against HIV | –
8 | Nc1ccn([C@H]2CC[C@@H](CO)O2)c(=O)n1 [ddC, 2',3'-Dideoxycytidine] | active against HIV | –
9 | O=C(O)P(=O)(O)O [foscarnet] | active against HIV | –
10 | CC(=O)O[C@H]1C[C@@]2(C)[C@@H](C[C@@H](O)[C@H]3[C@@]4(C)CC[C@@H](O)[C@@H](C)[C@@H]4CC[C@@]32C)/C1=C(\CCC=C(C)C)C(=O)O [fusidic acid] | active against HIV | –
11 | NC(=O)c1ncn([C@@H]2O[C@H](CO)[C@@H](O)[C@H]2O)n1 [ribavarin] | active against HIV | –
12 | Cc1ccc(C(=O)Nc2ccc(S(=O)(=O)O)c3cc(S(=O)(=O)O)cc(S(=O)(=O)O)c23)cc1NC(=O)c1cccc(NC(=O)Nc2cccc(C(=O)Nc3cc(C(=O)Nc4ccc(S(=O)(=O)O)c5cc(S(=O)(=O)O)cc(S(=O)(=O)O)c45)ccc3C)c2)c1 [suramine] | active against HIV | –
